Molecular target: T1, Ara h 8.0101 (Arachis hypogaea, UniProt Q6VT83)
T1 construct: recombinant, 15N-labelled; N-terminal glycine (initiator Met apparently absent)
T1 sequence (Q6VT83 2-157): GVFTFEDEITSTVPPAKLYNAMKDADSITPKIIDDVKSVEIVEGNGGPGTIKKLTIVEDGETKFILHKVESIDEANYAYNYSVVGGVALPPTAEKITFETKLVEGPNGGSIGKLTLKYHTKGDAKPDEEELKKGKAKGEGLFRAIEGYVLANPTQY
Assay: 1H-15N HSQC NMR titration
Assay type: binding

In the case of Oc1cc(O)c2c(c1)O[C@H](c1ccc(O)c(O)c1)[C@H](O)C2 [(-)-epicatechin], the Kd is reported as 760 ± 370 µM.

Reference: article PMC9330593, “The Structural Flexibility of PR-10 Food Allergens” (International Journal of Molecular Sciences, 2022)
